Experimental data published in ChEMBL document CHEMBL5724914, “Linking interpersonal differences in gut microbiota composition and drug biotransformation activity” (2024).

Key:
[1] = (§1) The drug is tested on Z-011 corresponding to mouse gut metagenome with ENA study accession number: PRJEB37062 and ENA sample accession number: ERS12561811 for biotransformation under anaerobic condition. The drug concentrations were measured over 9 timepoints collected between 0 and 24 hours of incubation by liquid-chromatography-coupled mass spectrometry (LC–MS); conditions: 2 µM
[2] = as §1, with “WLS-086” for “Z-011”, “human” for “mouse”, “ERS12561752” for “ERS12561811”; conditions: 2 µM
[3] = human gut metagenome, 24 h, 2 µM
[4] = human gut metagenome, 24 h, 2 µM; remark: listed apart in the source
[5] = human gut metagenome, 24 h, 2 µM; remark: listed apart in the source
[6] = human gut metagenome, 24 h, 2 µM; remark: listed apart in the source
[7] = human gut metagenome, 24 h, 2 µM; remark: listed apart in the source
[8] = human gut metagenome, 24 h, 2 µM; remark: listed apart in the source
[9] = human gut metagenome, 24 h, 2 µM; remark: listed apart in the source
[10] = human gut metagenome, 24 h, 2 µM; remark: listed apart in the source
[11] = human gut metagenome, 24 h, 2 µM; remark: listed apart in the source
[12] = as §1, with “WLS-082” for “Z-011”, “human” for “mouse”, “ERS12561751” for “ERS12561811”; conditions: 2 µM
[13] = human gut metagenome, 24 h, 2 µM; remark: listed apart in the source
[14] = human gut metagenome, 24 h, 2 µM; remark: listed apart in the source
[15] = human gut metagenome, 24 h, 2 µM; remark: listed apart in the source
[16] = as §1, with “Z-028” for “Z-011”, “ERS12561827” for “ERS12561811”; conditions: 2 µM
[17] = as §1, with “Z-026” for “Z-011”, “to” for “to mouse gut”, “ERS12561825” for “ERS12561811”; conditions: 2 µM
[18] = as §1, with “Z-016” for “Z-011”, “ERS12561815” for “ERS12561811”; conditions: 2 µM
[19] = as §1, with “Z-017” for “Z-011”, “ERS12561816” for “ERS12561811”; conditions: 2 µM
[20] = as §1, with “Z-023” for “Z-011”, “to” for “to mouse gut”, “ERS12561822” for “ERS12561811”; conditions: 2 µM
Also: call rule not given here.

SMILES	Bacterial Biotransformation [1]	Bacterial Biotransformation [2]	Bacterial Biotransformation [3]	Bacterial Biotransformation [4]	Bacterial Biotransformation [5]	Bacterial Biotransformation [6]	Bacterial Biotransformation [7]	Bacterial Biotransformation [8]	Bacterial Biotransformation [9]	Bacterial Biotransformation [10]	Bacterial Biotransformation [11]	Bacterial Biotransformation [12]	Bacterial Biotransformation [13]	Bacterial Biotransformation [14]	Bacterial Biotransformation [15]	Bacterial Biotransformation [16]	Bacterial Biotransformation [17]	Bacterial Biotransformation [18]	Bacterial Biotransformation [19]	Bacterial Biotransformation [20]
N[C@@H](Cc1ccc(N(CCCl)CCCl)cc1)C(=O)O	Compound metabolized	Compound metabolized	Compound metabolized	Compound NOT metabolized	Compound metabolized	Compound metabolized	Compound metabolized	Compound NOT metabolized	Compound metabolized	Compound NOT metabolized	Compound metabolized	–	–	–	–	–	–	–	–	–
CCCCC(=O)O[C@]1(C(=O)CO)[C@@H](C)C[C@H]2[C@@H]3CCC4=CC(=O)C=C[C@]4(C)[C@@]3(F)[C@@H](O)C[C@@]21C [BETAMETHASONE VALERATE]	–	Compound metabolized	Compound NOT metabolized	Compound metabolized	Compound NOT metabolized	Compound NOT metabolized	Compound NOT metabolized	Compound NOT metabolized	Compound NOT metabolized	Compound metabolized	Compound metabolized	Compound metabolized	Compound NOT metabolized	Compound metabolized	Compound metabolized	–	–	–	–	–
CC(=O)Oc1ccc(C(c2ccc(OC(C)=O)cc2)c2ccccn2)cc1 [BISACODYL]	–	Compound metabolized	Compound metabolized	Compound metabolized	Compound metabolized	Compound metabolized	Compound metabolized	Compound metabolized	Compound metabolized	Compound metabolized	Compound metabolized	Compound metabolized	Compound metabolized	Compound metabolized	Compound metabolized	–	–	–	–	–
CNCC[C@H](Oc1cccc2ccccc12)c1cccs1 [DULOXETINE]	–	Compound NOT metabolized	Compound NOT metabolized	Compound metabolized	Compound NOT metabolized	Compound NOT metabolized	Compound NOT metabolized	Compound metabolized	Compound NOT metabolized	Compound NOT metabolized	Compound NOT metabolized	Compound NOT metabolized	Compound NOT metabolized	Compound metabolized	Compound NOT metabolized	–	–	–	–	–
COCCCC/C(=N\OCCN)c1ccc(C(F)(F)F)cc1.O=C(O)/C=C\C(=O)O [FLUVOXAMINE MALEATE]	–	Compound NOT metabolized	Compound NOT metabolized	Compound NOT metabolized	Compound NOT metabolized	Compound NOT metabolized	Compound metabolized	Compound NOT metabolized	Compound metabolized	Compound metabolized	Compound metabolized	Compound NOT metabolized	Compound NOT metabolized	Compound NOT metabolized	Compound NOT metabolized	–	–	–	–	–

The next lines start with the values.

Bacterial Biotransformation [1]	Bacterial Biotransformation [2]	Bacterial Biotransformation [3]	Bacterial Biotransformation [4]	Bacterial Biotransformation [5]	Bacterial Biotransformation [6]	Bacterial Biotransformation [7]	Bacterial Biotransformation [8]	Bacterial Biotransformation [9]	Bacterial Biotransformation [10]	Bacterial Biotransformation [11]	Bacterial Biotransformation [12]	Bacterial Biotransformation [13]	Bacterial Biotransformation [14]	Bacterial Biotransformation [15]	Bacterial Biotransformation [16]	Bacterial Biotransformation [17]	Bacterial Biotransformation [18]	Bacterial Biotransformation [19]	Bacterial Biotransformation [20]	SMILES
–	Compound metabolized	Compound metabolized	Compound NOT metabolized	Compound NOT metabolized	Compound NOT metabolized	Compound NOT metabolized	Compound NOT metabolized	Compound NOT metabolized	Compound NOT metabolized	Compound NOT metabolized	Compound NOT metabolized	Compound NOT metabolized	Compound NOT metabolized	Compound NOT metabolized	–	–	–	–	–	CN(C)CCc1c[nH]c2ccc(CS(=O)(=O)N3CCCC3)cc12 [ALMOTRIPTAN]
–	Compound metabolized	Compound metabolized	Compound metabolized	Compound NOT metabolized	Compound NOT metabolized	Compound metabolized	Compound NOT metabolized	Compound metabolized	Compound metabolized	Compound metabolized	Compound metabolized	Compound metabolized	Compound metabolized	Compound NOT metabolized	–	–	–	–	–	Cc1nc(Nc2ncc(C(=O)Nc3c(C)cccc3Cl)s2)cc(N2CCN(CCO)CC2)n1 [DASATINIB ANHYDROUS]
–	Compound NOT metabolized	Compound NOT metabolized	Compound NOT metabolized	Compound NOT metabolized	Compound NOT metabolized	Compound NOT metabolized	Compound NOT metabolized	Compound NOT metabolized	Compound NOT metabolized	Compound NOT metabolized	–	Compound NOT metabolized	Compound NOT metabolized	–	–	–	–	–	–	CC#CCn1c(N2CCC[C@@H](N)C2)nc2c1c(=O)n(Cc1nc(C)c3ccccc3n1)c(=O)n2C [LINAGLIPTIN]
–	Compound metabolized	Compound metabolized	Compound metabolized	Compound NOT metabolized	Compound NOT metabolized	Compound metabolized	Compound NOT metabolized	Compound NOT metabolized	Compound metabolized	Compound NOT metabolized	Compound NOT metabolized	Compound metabolized	Compound NOT metabolized	Compound metabolized	–	–	–	–	–	N#Cc1ccc2c(c1)N(CCCN1CCC(O)CC1)c1ccccc1S2 [PERICIAZINE]
–	Compound metabolized	Compound metabolized	Compound metabolized	Compound NOT metabolized	Compound NOT metabolized	Compound NOT metabolized	Compound NOT metabolized	Compound NOT metabolized	Compound NOT metabolized	Compound metabolized	–	Compound metabolized	Compound NOT metabolized	Compound NOT metabolized	Compound metabolized	Compound metabolized	–	–	–	CNNCc1ccc(C(=O)NC(C)C)cc1 [PROCARBAZINE]
Compound NOT metabolized	Compound metabolized	Compound NOT metabolized	Compound metabolized	Compound NOT metabolized	Compound NOT metabolized	Compound NOT metabolized	Compound NOT metabolized	Compound NOT metabolized	Compound NOT metabolized	Compound NOT metabolized	Compound NOT metabolized	Compound NOT metabolized	Compound NOT metabolized	Compound NOT metabolized	Compound NOT metabolized	Compound NOT metabolized	Compound NOT metabolized	Compound NOT metabolized	–	CN(C/C=C/C#CC(C)(C)C)Cc1cccc2ccccc12 [TERBINAFINE]
Compound metabolized	Compound metabolized	Compound metabolized	–	Compound NOT metabolized	Compound metabolized	Compound metabolized	Compound metabolized	Compound metabolized	Compound metabolized	–	Compound metabolized	Compound metabolized	Compound metabolized	Compound metabolized	Compound metabolized	Compound NOT metabolized	Compound metabolized	Compound NOT metabolized	Compound metabolized	N#Cc1ccc2[nH]cc(CCCCN3CCN(c4ccc5oc(C(N)=O)cc5c4)CC3)c2c1 [VILAZODONE]
